Type in all cases: functional
One experiment relates to Mycobacterium. The experiment in a line: Antibacterial activity against Mycobacterium ranae ATCC 110.
In a further experiment the test system is Salmonella typhimurium. The experiment in a line: Antibacterial activity against Salmonella Typhimurium ATCC 13311. Conditions: for Activity: Salmonella enterica subsp. enterica serovar Typhimurium; for MIC: Salmonella enterica.
Another experiment has as its system Staphylococcus aureus. Briefly: Antibacterial activity against methicillin/gentamicin/tetracycline resistant Staphylococcus aureus ATCC 33592.

As usually defined, the MIC is the smallest concentration in the dilution series that meets the test's criterion for growth inhibition. Read a high MIC as a need for much substance.

Values after ≈ are worked out from the molar mass of the structure shown. Active and inactive are the calls of the source. Non-standard residues stand in square brackets, D forms with d. Residues, ends and D or L forms follow the SMILES beside them. ξ: configuration not given here. Pro(3ξ,4ξ-(CH2)4) = O=C(O)[C@H]1NCC2CCCCC21; Pro(3,4-benzo) = O=C(O)[C@H]1NCc2ccccc21; Tic = O=C(O)[C@@H]1Cc2ccccc2CN1; Orn = NCCC[C@H](N)C(=O)O; βAla = NCCC(=O)O

Turning to `CC(C)C[C@@H](NC(=O)CNC(=O)[C@H](CCCCN)NC(=O)CN)C(=O)N1Cc2ccccc2C[C@H]1C(=O)N1CC2CCCCC2[C@H]1C(=O)N[C@@H](Cc1ccccc1)C(=O)N[C@@H](CCCN)C(=O)N1Cc2ccccc2C[C@H]1C(=O)N1CC2CCCCC2[C@H]1C(=O)N[C@H](CCCCN)C(=O)N[C@@H](Cc1ccccc1)C(=O)N1Cc2ccccc2C[C@H]1C(=O)N1CC2CCCCC2[C@H]1C(=O)N[C@@H](Cc1ccccc1)C(=O)N[C@@H](CCCCN)C(=O)N1Cc2ccccc2C[C@H]1C(=O)N1CC2CCCCC2[C@H]1C(=O)N[C@@H](CCCCN)C(=O)N[C@@H](Cc1ccccc1)C(=O)N1Cc2ccccc2C[C@H]1C(=O)N1CC2CCCCC2[C@H]1C(=O)N[C@H](Cc1ccccc1)C(=O)N[C@@H](CCCCN)C(=O)N1Cc2ccccc2C[C@H]1C(=O)N1CC2CCCCC2[C@H]1C(=O)N[C@@H](Cc1ccccc1)C(=O)N[C@@H](CCCCN)C(=O)N[C@@H](CCCNC(=N)N)C(N)=O` (stereo not given in full), in the experiment on Mycobacterium, the result was inactive.

As for `CSCC[C@H](NC(=O)[C@H](CC(C)C)NC(=O)[C@H](CCC(=O)O)NC(=O)[C@@H]1CCCN1C(=O)[C@H](Cc1ccccc1)NC(=O)[C@H](CCCCN)NC(=O)CNC(=O)[C@H](CC(C)C)NC(=O)CNC(=O)[C@H](Cc1ccccc1)NC(=O)[C@H](CCC(=O)O)NC(=O)[C@H](CCCCN)NC(=O)CNC(=O)[C@H](CC(C)C)NC(=O)CNC(=O)[C@@H]1CCCN1C(=O)[C@H](Cc1ccccc1)NC(=O)[C@H](CCSC)NC(=O)[C@H](CCCCN)NC(=O)CNC(C)=O)C(=O)NCC(=O)N[C@@H](CCC(=O)O)C(=O)N[C@@H](CCCNC(=N)N)C(N)=O` (Ac-GKMFPGLGKEFGLGKFPELMGER-NH2), the outcome with Salmonella typhimurium and in the experiment on Staphylococcus aureus was inactive.

As for `CSCC[C@H](NC(=O)[C@H](CC(C)C)NC(=O)[C@H](CCC(=O)O)NC(=O)[C@@H]1CCCN1C(=O)[C@@H]1Cc2ccccc2CN1C(=O)[C@H](CCCCN)NC(=O)CNC(=O)[C@H](CC(C)C)NC(=O)CNC(=O)[C@@H]1C2CCCCC2CN1C(=O)[C@@H]1Cc2ccccc2CN1C(=O)[C@H](CCC(=O)O)NC(=O)[C@H](CCCCN)NC(=O)CNC(=O)[C@H](CC(C)C)NC(=O)CNC(=O)[C@@H]1C2CCCCC2CN1C(=O)[C@@H]1Cc2ccccc2CN1C(=O)[C@H](CCCCN)NC(=O)CNC(C)=O)C(=O)NCC(=O)N[C@@H](CCC(=O)O)C(=O)N[C@@H](CCCNC(=N)N)C(N)=O` (stereo not given in full) (Ac-GK[Tic][Pro(3ξ,4ξ-(CH2)4)]GLGKE[Tic][Pro(3ξ,4ξ-(CH2)4)]GLGK[Tic]PELMGER-NH2), the result with Salmonella typhimurium and in the experiment on Staphylococcus aureus was inactive.

As to `CSCC[C@H](NC(=O)[C@H](CC(C)C)NC(=O)[C@H](CCC(=O)O)NC(=O)[C@@H]1c2ccccc2CN1C(=O)[C@@H]1Cc2ccccc2CN1C(=O)[C@H](Cc1ccccc1)NC(=O)CCNC(=O)[C@@H]1c2ccccc2CN1C(=O)[C@@H]1Cc2ccccc2CN1C(=O)[C@H](CCCCN)NC(=O)CCNC(=O)[C@@H]1c2ccccc2CN1C(=O)[C@@H]1Cc2ccccc2CN1C(=O)[C@H](Cc1ccccc1)NC(=O)CCNC(=O)[C@@H]1c2ccccc2CN1C(=O)[C@@H]1Cc2ccccc2CN1C(=O)[C@H](CCCCN)NC(=O)CCNC(=O)[C@@H]1c2ccccc2CN1C(=O)[C@@H]1Cc2ccccc2CN1C(=O)[C@H](CC(C)C)NC(=O)CNC(=O)[C@H](CCCCN)NC(=O)CN)C(=O)N[C@@H](CC(N)=O)C(=O)N[C@@H](CO)C(N)=O` (H-GKGL[Tic][Pro(3,4-benzo)][βAla]K[Tic][Pro(3,4-benzo)][βAla]F[Tic][Pro(3,4-benzo)][βAla]K[Tic][Pro(3,4-benzo)][βAla]F[Tic][Pro(3,4-benzo)]ELMNS-NH2), the result with Salmonella typhimurium and in the experiment on Staphylococcus aureus was inactive.

Consider `CC(C)C[C@H](NC(=O)CNC(=O)[C@H](CCCCN)NC(=O)CN)C(=O)N1Cc2ccccc2C[C@H]1C(=O)N1CC2CCCCC2[C@H]1C(=O)NCC(=O)N[C@@H](CCCCN)C(=O)N1Cc2ccccc2C[C@H]1C(=O)N1CC2CCCCC2[C@H]1C(=O)NCC(=O)N[C@@H](Cc1ccccc1)C(=O)N1Cc2ccccc2C[C@H]1C(=O)N1CC2CCCCC2[C@H]1C(=O)NCC(=O)N[C@@H](CCCCN)C(=O)N1Cc2ccccc2C[C@H]1C(=O)N1CC2CCCCC2[C@H]1C(=O)NCC(=O)N[C@@H](Cc1ccccc1)C(=O)N1Cc2ccccc2C[C@H]1C(=O)N1CC2CCCCC2[C@H]1C(=O)NCC(=O)N[C@@H](CCCCN)C(=O)N1Cc2ccccc2C[C@H]1C(=O)N1CC2CCCCC2[C@H]1C(=O)NCC(=O)N[C@@H](CCCCN)C(=O)N[C@@H](CCCNC(=N)N)C(N)=O` (stereo not given in full) (H-GKGL[Tic][Pro(3ξ,4ξ-(CH2)4)]GK[Tic][Pro(3ξ,4ξ-(CH2)4)]GF[Tic][Pro(3ξ,4ξ-(CH2)4)]GK[Tic][Pro(3ξ,4ξ-(CH2)4)]GF[Tic][Pro(3ξ,4ξ-(CH2)4)]GK[Tic][Pro(3ξ,4ξ-(CH2)4)]GKR-NH2), for which, in the experiment on Staphylococcus aureus, 10 µM (≈ 35.4 µg/mL) was the least that counted as inhibitory (MIC).

On to `CC(C)C[C@H](NC(=O)CNC(=O)[C@H](CCCCN)NC(=O)CN)C(=O)N1Cc2ccccc2C[C@H]1C(=O)N1CC2CCCCC2[C@H]1C(=O)NCC(=O)N[C@@H](CCCCN)C(=O)N1Cc2ccccc2C[C@H]1C(=O)N1CC2CCCCC2[C@H]1C(=O)NCC(=O)N[C@@H](CC(C)C)C(=O)N1Cc2ccccc2C[C@H]1C(=O)N1CC2CCCCC2[C@H]1C(=O)NCC(=O)N[C@@H](CCCCN)C(=O)N1Cc2ccccc2C[C@H]1C(=O)N1CC2CCCCC2[C@H]1C(=O)NCC(=O)N[C@@H](CC(C)C)C(=O)N1Cc2ccccc2C[C@H]1C(=O)N1CC2CCCCC2[C@H]1C(=O)NCC(=O)N[C@@H](CCCCN)C(=O)N1Cc2ccccc2C[C@H]1C(=O)N1CC2CCCCC2[C@H]1C(=O)NCC(=O)N[C@@H](CCCCN)C(=O)N[C@@H](CCCNC(=N)N)C(N)=O` (stereo not given in full) (H-GKGL[Tic][Pro(3ξ,4ξ-(CH2)4)]GK[Tic][Pro(3ξ,4ξ-(CH2)4)]GL[Tic][Pro(3ξ,4ξ-(CH2)4)]GK[Tic][Pro(3ξ,4ξ-(CH2)4)]GL[Tic][Pro(3ξ,4ξ-(CH2)4)]GK[Tic][Pro(3ξ,4ξ-(CH2)4)]GKR-NH2), for which the minimum inhibitory concentration (MIC) against Salmonella typhimurium was found to be 100 µM (≈ 347 µg/mL); in the experiment on Staphylococcus aureus, 10 µM (≈ 34.7 µg/mL).

Turning to `CC(C)C[C@H](NC(=O)CNC(=O)[C@H](CCCCN)NC(=O)CN)C(=O)N1Cc2ccccc2C[C@H]1C(=O)N1CC2CCCCC2[C@H]1C(=O)NCC(=O)N[C@@H](CCCN)C(=O)N1Cc2ccccc2C[C@H]1C(=O)N1CC2CCCCC2[C@H]1C(=O)NCC(=O)N[C@@H](Cc1ccccc1)C(=O)N1Cc2ccccc2C[C@H]1C(=O)N1CC2CCCCC2[C@H]1C(=O)NCC(=O)N[C@@H](CCCCN)C(=O)N1Cc2ccccc2C[C@H]1C(=O)N1CC2CCCCC2[C@H]1C(=O)NCC(=O)N[C@@H](Cc1ccccc1)C(=O)N1Cc2ccccc2C[C@H]1C(=O)N1CC2CCCCC2[C@H]1C(=O)NCC(=O)N[C@@H](CCCCN)C(=O)N1Cc2ccccc2C[C@H]1C(=O)N1CC2CCCCC2[C@H]1C(=O)NCC(=O)N[C@@H](CCCCN)C(=O)N[C@@H](CCCNC(=N)N)C(N)=O` (stereo not given in full) (H-GKGL[Tic][Pro(3ξ,4ξ-(CH2)4)]G[Orn][Tic][Pro(3ξ,4ξ-(CH2)4)]GF[Tic][Pro(3ξ,4ξ-(CH2)4)]GK[Tic][Pro(3ξ,4ξ-(CH2)4)]GF[Tic][Pro(3ξ,4ξ-(CH2)4)]GK[Tic][Pro(3ξ,4ξ-(CH2)4)]GKR-NH2), the outcome in the experiment on Salmonella typhimurium was inactive.

Regarding `CSCC[C@H](NC(=O)[C@H](CC(C)C)NC(=O)[C@H](CCC(=O)O)NC(=O)[C@@H]1CCCN1C(=O)[C@H](Cc1ccccc1)NC(=O)[C@H](CCCCN)NC(=O)CNC(=O)[C@H](CC(C)C)NC(=O)CNC(=O)[C@@H]1CCCN1C(=O)[C@H](Cc1ccccc1)NC(=O)[C@H](CCCCN)NC(=O)CNC(=O)[C@H](CC(C)C)NC(=O)CNC(=O)[C@@H]1CCCN1C(=O)[C@H](Cc1ccccc1)NC(=O)[C@H](CCSC)NC(=O)[C@H](CCCCN)NC(=O)CN)C(=O)NCC(=O)N[C@@H](CCCNC(=N)N)C(N)=O` (H-GKMFPGLGKFPGLGKFPELMGR-NH2), the result in the experiment with Salmonella typhimurium and in the experiment on Staphylococcus aureus was inactive.

For `CSCC[C@H](NC(=O)[C@H](CC(C)C)NC(=O)[C@H](CCC(=O)O)NC(=O)[C@@H]1CCCN1C(=O)[C@@H]1C2CCCCC2CN1C(=O)[C@H](CCCCN)NC(=O)CNC(=O)[C@H](CC(C)C)NC(=O)CNC(=O)[C@@H]1CCCN1C(=O)[C@@H]1C2CCCCC2CN1C(=O)[C@H](CCCCN)NC(=O)CNC(=O)[C@H](CC(C)C)NC(=O)CNC(=O)[C@@H]1CCCN1C(=O)[C@@H]1C2CCCCC2CN1C(=O)[C@H](CCSC)NC(=O)[C@H](CCCCN)NC(=O)CN)C(=O)NCC(=O)N[C@@H](CCCNC(=N)N)C(N)=O` (stereo not given in full) (H-GKM[Pro(3ξ,4ξ-(CH2)4)]PGLGK[Pro(3ξ,4ξ-(CH2)4)]PGLGK[Pro(3ξ,4ξ-(CH2)4)]PELMGR-NH2), the outcome in the experiment with Salmonella typhimurium and with Staphylococcus aureus was inactive.

Take `CSCC[C@H](NC(=O)[C@H](CC(C)C)NC(=O)[C@H](CCC(=O)O)NC(=O)[C@@H]1Cc2ccccc2CN1C(=O)[C@H](CCCCN)NC(=O)CNC(=O)[C@H](CC(C)C)NC(=O)CNC(=O)[C@@H]1Cc2ccccc2CN1C(=O)[C@H](CCCCN)NC(=O)CNC(=O)[C@H](CC(C)C)NC(=O)CNC(=O)[C@@H]1Cc2ccccc2CN1C(=O)[C@H](CCSC)NC(=O)[C@H](CCCCN)NC(=O)CN)C(=O)NCC(=O)N[C@@H](CCCNC(=N)N)C(N)=O` (H-GKM[Tic]GLGK[Tic]GLGK[Tic]ELMGR-NH2): the outcome with Salmonella typhimurium and in the experiment on Staphylococcus aureus was inactive.

Take `CSCC[C@H](NC(=O)[C@H](CC(C)C)NC(=O)[C@H](CCC(=O)O)NC(=O)[C@@H]1CCCN1C(=O)[C@@H]1Cc2ccccc2CN1C(=O)[C@H](CCCCN)NC(=O)CNC(=O)[C@H](CC(C)C)NC(=O)CNC(=O)[C@@H]1CCCN1C(=O)[C@@H]1Cc2ccccc2CN1C(=O)[C@H](CCCCN)NC(=O)CNC(=O)[C@H](CC(C)C)NC(=O)CNC(=O)[C@@H]1CCCN1C(=O)[C@@H]1Cc2ccccc2CN1C(=O)[C@H](CCSC)NC(=O)[C@H](CCCCN)NC(=O)CN)C(=O)NCC(=O)N[C@@H](CCCNC(=N)N)C(N)=O` (H-GKM[Tic]PGLGK[Tic]PGLGK[Tic]PELMGR-NH2): the outcome with Salmonella typhimurium and in the experiment on Staphylococcus aureus was inactive.

`CC[C@H](C)[C@H](NC(=O)CN)C(=O)NCC(=O)N[C@@H](CCCCN)C(=O)N[C@@H](Cc1ccccc1)C(=O)N[C@@H](CC(C)C)C(=O)N[C@@H](Cc1cnc[nH]1)C(=O)N[C@@H](CO)C(=O)N[C@@H](C)C(=O)NCC(=O)N[C@@H](CCCCN)C(=O)N[C@@H](Cc1ccccc1)C(=O)NCC(=O)N[C@@H](CCCCN)C(=O)N[C@@H](C)C(=O)N[C@@H](Cc1ccccc1)C(=O)N[C@H](C(=O)NCC(=O)N[C@@H](CCC(=O)O)C(=O)N[C@H](C(=O)N[C@@H](CCSC)C(=O)N[C@@H](CCCCN)C(=O)N[C@@H](CO)C(N)=O)[C@@H](C)CC)C(C)C` [MAGAININ 1] yielded an MIC with Salmonella typhimurium of 30 µM (≈ 72.3 µg/mL).

The values are drawn from ChEMBL document CHEMBL1145395, “De novo design of selective antibiotic peptides by incorporation of unnatural amino acids” (J Med Chem, 2007).
